Data taken from PubChem BioAssay AID2060500 (Molecular Pharmacology Branch, DTP, NCI, 2025).
One block for each compound: values may come before it.

System: 596521-263-R-J1-PDC complex spheroids, viability % of control
Test: Anticancer human tumor 596521-263-R-J1-PDC patient-derived soft tissue sarcoma cell line growth inhibition [GQUAD]
Details: for IC50: curve of first compound; for viability, T/C: stronger effect = lower value
In short: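 Multi-cell-type spheroids of tumor cells with HUVEC and mesenchymal stem cells, treated with drug combinations. Concentrations descend in half-log steps from near clinical Cmax, or from 10 microM where Cmax is unknown; viability read-out.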

[1] = second compound 0.0316 µM, first compound 0.0316 µM
[2] = second compound 0.0316 µM, first compound 0.1 µM
[3] = second compound 0.0316 µM, first compound 0.316 µM
[4] = second compound 0.0316 µM, first compound 1 µM
[5] = second compound 0.0316 µM, first compound 3.16 µM
[6] = second compound 0.0316 µM, first compound 10 µM
[7] = second compound 0.1 µM, first compound 0.0316 µM
[8] = second compound 0.1 µM, first compound 0.1 µM
[9] = second compound 0.1 µM, first compound 0.316 µM
[10] = second compound 0.1 µM, first compound 1 µM
[11] = second compound 0.1 µM, first compound 3.16 µM
[12] = second compound 0.1 µM, first compound 10 µM
[13] = second compound 0.316 µM, first compound 0.0316 µM
[14] = second compound 0.316 µM, first compound 0.1 µM
[15] = second compound 0.316 µM, first compound 0.316 µM
[16] = second compound 0.316 µM, first compound 1 µM
[17] = second compound 0.316 µM, first compound 3.16 µM
[18] = second compound 0.316 µM, first compound 10 µM
[19] = second compound 1 µM, first compound 0.0316 µM
[20] = second compound 1 µM, first compound 0.1 µM
[21] = second compound 1 µM, first compound 0.316 µM
[22] = second compound 1 µM, first compound 1 µM
[23] = second compound 1 µM, first compound 3.16 µM
[24] = second compound 1 µM, first compound 10 µM
[25] = second compound 3.16 µM, first compound 0.0316 µM
[26] = second compound 3.16 µM, first compound 0.1 µM
[27] = second compound 3.16 µM, first compound 0.316 µM
[28] = second compound 3.16 µM, first compound 1 µM
[29] = second compound 3.16 µM, first compound 3.16 µM
[30] = second compound 3.16 µM, first compound 10 µM
[31] = second compound 10 µM, first compound 0.0316 µM
[32] = second compound 10 µM, first compound 0.1 µM
[33] = second compound 10 µM, first compound 0.316 µM
[34] = second compound 10 µM, first compound 1 µM
[35] = second compound 10 µM, first compound 3.16 µM
[36] = second compound 10 µM, first compound 10 µM
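Note: spheroids exposed to drugs for 7 days before viability reading.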
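Throughout, for viability, T/C: 100% = DMSO vehicle control viability.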

IC50 (second compound 0.0316 µM): 8290 nM
IC50 (second compound 0.1 µM): 7340 nM
IC50 (second compound 0.316 µM): 6680 nM
IC50 (second compound 1 µM): 5020 nM
IC50 (second compound 3.16 µM): 4250 nM
IC50 (second compound 10 µM): < 31.6 nM
Structure (SMILES): CCCS(=O)(=O)Nc1ccc(F)c(C(=O)c2c[nH]c3ncc(-c4ccc(Cl)cc4)cc23)c1F + Cc1cnc(CNC(=O)c2c(=O)c3ccc(N4CCCN(C)CC4)nc3n3c2sc2ccccc23)cn1
viability, T/C [1]: 100%
viability, T/C [2]: 90.1%
viability, T/C [3]: 98.1%
viability, T/C [4]: 97.5%
viability, T/C [5]: 78.5%
viability, T/C [6]: 44.4%
viability, T/C [7]: 90.6%
viability, T/C [8]: 85.5%
viability, T/C [9]: 95.7%
viability, T/C [10]: 79.4%
viability, T/C [11]: 83.6%
viability, T/C [12]: 37.5%
viability, T/C [13]: 81.2%
viability, T/C [14]: 84.6%
viability, T/C [15]: 80.1%
viability, T/C [16]: 71.7%
viability, T/C [17]: 71.3%
viability, T/C [18]: 39.5%
viability, T/C [19]: 64.2%
viability, T/C [20]: 65.8%
viability, T/C [21]: 67%
viability, T/C [22]: 61.5%
viability, T/C [23]: 53.3%
viability, T/C [24]: 43.1%
viability, T/C [25]: 57%
viability, T/C [26]: 50.3%
viability, T/C [27]: 62.8%
viability, T/C [28]: 52%
viability, T/C [29]: 55.2%
viability, T/C [30]: 35.8%
viability, T/C [31]: 46.5%
viability, T/C [32]: 27.8%
viability, T/C [33]: 50.4%
viability, T/C [34]: 46.1%
viability, T/C [35]: 24.7%
viability, T/C [36]: 0.21%

IC50 (second compound 0.0316 µM): 333 nM
IC50 (second compound 0.1 µM): 367 nM
IC50 (second compound 0.316 µM): 191 nM
IC50 (second compound 1 µM): 62.4 nM
IC50 (second compound 3.16 µM): 90.9 nM
IC50 (second compound 10 µM): < 31.6 nM
Structure (SMILES): CC1COCCN1c1cc(-c2ccnn2C)c2ccnc(-c3ccn[nH]3)c2n1 (stereo unspecified) + Cc1cnc(CNC(=O)c2c(=O)c3ccc(N4CCCN(C)CC4)nc3n3c2sc2ccccc23)cn1
viability, T/C [1]: 55.9%
viability, T/C [2]: 55.6%
viability, T/C [3]: 48.3%
viability, T/C [4]: 42.5%
viability, T/C [5]: 27.4%
viability, T/C [6]: 23.2%
viability, T/C [7]: 53.1%
viability, T/C [8]: 65.6%
viability, T/C [9]: 47%
viability, T/C [10]: 41.8%
viability, T/C [11]: 29.7%
viability, T/C [12]: 28.1%
viability, T/C [13]: 57.4%
viability, T/C [14]: 51.3%
viability, T/C [15]: 49%
viability, T/C [16]: 41.2%
viability, T/C [17]: 33%
viability, T/C [18]: 25.1%
viability, T/C [19]: 52.2%
viability, T/C [20]: 47.8%
viability, T/C [21]: 42.9%
viability, T/C [22]: 34%
viability, T/C [23]: 26.8%
viability, T/C [24]: 26.6%
viability, T/C [25]: 49.8%
viability, T/C [26]: 52.3%
viability, T/C [27]: 45.3%
viability, T/C [28]: 38%
viability, T/C [29]: 29.4%
viability, T/C [30]: 21.2%
viability, T/C [31]: 39.7%
viability, T/C [32]: 35%
viability, T/C [33]: 33.3%
viability, T/C [34]: 30.4%
viability, T/C [35]: 25%
viability, T/C [36]: 14.1%

Structure (SMILES): CC1COCCN1c1cc(-c2ccnn2C)c2ccnc(-c3ccn[nH]3)c2n1 (stereo unspecified) + CN(C)c1ccc(Nc2c3ccc(NC(=O)CCN4CCCC4)cc3nc3cc(NC(=O)CCN4CCCC4)ccc23)cc1
IC50 (second compound 0.0316 µM): 206 nM
IC50 (second compound 0.1 µM): 301 nM
IC50 (second compound 0.316 µM): 366 nM
IC50 (second compound 1 µM): 449 nM
IC50 (second compound 3.16 µM): 348 nM
IC50 (second compound 10 µM): 161 nM
viability, T/C [1]: 69.3%
viability, T/C [2]: 53.7%
viability, T/C [3]: 44.4%
viability, T/C [4]: 41.3%
viability, T/C [5]: 29.4%
viability, T/C [6]: 22.8%
viability, T/C [7]: 81%
viability, T/C [8]: 59.2%
viability, T/C [9]: 49.5%
viability, T/C [10]: 39.2%
viability, T/C [11]: 30.9%
viability, T/C [12]: 21.3%
viability, T/C [13]: 65.6%
viability, T/C [14]: 63.4%
viability, T/C [15]: 49.9%
viability, T/C [16]: 39.3%
viability, T/C [17]: 30.4%
viability, T/C [18]: 21.9%
viability, T/C [19]: 66.2%
viability, T/C [20]: 63.6%
viability, T/C [21]: 50.2%
viability, T/C [22]: 45.4%
viability, T/C [23]: 30.6%
viability, T/C [24]: 25%
viability, T/C [25]: 69.4%
viability, T/C [26]: 59.4%
viability, T/C [27]: 49.8%
viability, T/C [28]: 43.6%
viability, T/C [29]: 31.1%
viability, T/C [30]: 22.9%
viability, T/C [31]: 55.6%
viability, T/C [32]: 54.8%
viability, T/C [33]: 44.4%
viability, T/C [34]: 35.5%
viability, T/C [35]: 26.6%
viability, T/C [36]: 21.9%
